For one data set, the system named is Rhizoctonia solani. Format: cell-based. Particulars: R. solani.
A further data set concerns Musca domestica. Description: Topical test on houseflies (MD). Format: in vivo. Particulars: for MD (LD50): houseflies, topical on thorax, kill assessed 24 and 48 h. The procedure: (§1) Pesticidal activity was assessed against houseflies, mustard beetles, mites and whitefly using the following methods.
Houseflies (MD) (Musca domestica)
Female flies were treated on the thorax with a one microliter drop of test compound dissolved in acetone. Two replicates of 15 flies were used at each dose rate and 6 dose rates were used per compound under test. After treatment, the flies were maintained at a temperature of 20°±1° C. and kill was assessed 24 and 48 hours after treatment. LD50 values were calculated in micrograms of test compound per fly (see Sawicki et al., Bulletin of the World Health Organisation, 35, 893 (1966) and Sawicki et al., Entomologia and Exp. Appli 10, 253, (1967).
(§2) The values given are LD50 (μg/insect) or LC50 (ppm solution of test compound) unless otherwise specified.

In a further data set the test system is Aphis gossypiae. Description: Aphicidal activity, aphid-dip. It counts as in vivo. Particulars: strain 81-171B, read-out: Aphid-dip result, % kill A.G. 81-171B. The protocol: (§3) Activity against resistant (R) and susceptible (S) strains of aphid (Myzus persicae) and Aphis gossypiae was assessed using the following two methods.
(§4) Entrapment rings of fluon were painted halfway up the inside of 4 cm lengths of glass tubing (1.5 cm diameter), and squares of insect-proof gauze were attached to one end of each tube by elastic bands. Fifteen apterous adults were then gently transferred into the tubes using a sable-hair brush, and the tube sealed with a second gauze square.
(§5) Tubes containing aphids were dipped into insecticide solutions for 10 seconds, dried on blotting paper, and then inverted and tapped to cause treated aphids to fall to the unimmersed end of each tube. Handling mortality (usually zero or very slight) was scored after 1 hour, when aphids were transferred onto chinese cabbage leaf-discs (35 mm diameter) on an agar bed (25 mm in depth) in disposible plastic containers (30 mm high) and confined by applying a ring of fluon to the exposed lip of the container. Containers were stored upright, without lids, in a constant environment facility maintained at 25° C. under continuous room lighting. Mortality was assessed at 24, 48 and 72 hours. Two replicates of 15 aphids each were used at each dose rate and 5 or 6 dose rates were used per compound under test.
(§6) The values given are % mortality corrected for control data. The control comprised the test solution without active ingredient.

The next data set deals with Phaedon cochleariae Fab. In words: Topical test on mustard beetles (PC). It counts as in vivo. Particulars: for PC (LD50): mustard beetles, topical, 48 h. The protocol: as §1
Mustard beetles (PC) (Phaedon cochleariae Fab)
A one microliter drop of an acetone solution of the test compound was applied ventrally to adult mustard beetles using a micro drop applicator. The treated insects were maintained for 48 hours after which time kill was assessed. Two replicates each of 20 to 25 mustard beetles were used at each dose level and 5 dose levels were treated comparably. LD50 values were calculated as for houseflies.
as §2

Data set [1] deals with Myzus persicae. In words: Aphicidal activity, aphid-dip. It counts as in vivo. The procedure: as §3, §4, §5
(§7) The test was carried out using a susceptible strain of aphids (US1L) collected in the field in East Anglia, UK and an extremely resistant strain of aphids (794Jz) (R^3 esterase, sensitive ACHE) collected from glasshouses in the UK.
as §6

In a further data set the test system is Aspergillus niger. It counts as cell-based. Particulars: A. niger.
Data set [2] concerns Myzus persicae. In words: Aphicidal activity, topical application. The note with it: 100 ppm, 72 h. Format: in vivo. The procedure: as §3
Batches of 10-15 apterous adults were removed from stock cultures and placed on leaf discs (35 mm in diameter) cut from chinese cabbage and held on an agar bed (25 mm deep) in disposable plastic containers (30 mm high). Using a Burkhard micro-applicator aphids were dosed individually with a 0.25 μm droplet of chemical diluted to the required concentration in acetone. control insects were dosed with acetone only. Mortality and other effects were scored at 24 hour intervals up to and including 72 hour post-treatment, the end-point to which the results relate.
as §7, §6

Data set [3] deals with Pyricularia oryzae (=Magnaporthe grisea). It counts as cell-based. The note with it: P. oryzae, 100 mg 1^-1, 7 days.
Another data set deals with Tetranychus urticae. In words: Immersion test on mites (TU), susceptible strain GSS. The note with it: 72 h, read-out: TU (GSS) (LC50). It counts as in vivo. The protocol:
as §1
Mites (TU) (Tetranychus urticae)
25 adult female mites were immersed in 35 μl of a solution of the test compound in a 1:4 acetone-water mixture for 30 seconds. The treated insects were maintained at 21°±2° C. and kill was assessed 72 hours after treatment. […] Three replicates of 25 mites each were used at each dose rate and 5 or 6 dose rates were used per compound under test. LC50 values were calculated in ppm of the solution of the test compound per insect. The test was carried out using a susceptible strain of mites (GSS) supplied by Schering, AG, Berlin.
as §2

The test system of the next data set is Bemisia tabaci. Description: Film/vial test on whitefly (BT), susceptible strain SUD-S. Format: in vivo. Particulars: 48 h, read-out: BT (SUD-S) (LC50). The procedure:
as §1
Whitefly (BT) (Bemisia tabaci)
Acetone solutions (0.100 ml) of the test compounds were placed in 10 ml glass vials and evaporated with rotation to deposit a film of the compound. Thirty adult whiteflies were placed inside the vial, then after 60 minutes, the treated insects were transferred onto untreated cotton leaf discs which were kept moist on a bed of agar gel. The temperature was maintained at 25° C. and mortality assessed after 48 hours. Three replicates were used at each of 5 to 7 dose levels per compound. LC50 values were calculated by using a computer software package ("Polo-PC" available from LeOra Software, Berkeley, Calif.). (See M. R. Cahill and B. Hackett in Proceedings Brighton Crop Protection Conference, 1992). The test was carried out using a susceptible strain of whitefly (SUD-S) which was collected in Sudan in 1978 from cotton.
as §2

The test system of a further data set is Tetranychus. The note with it: Tabelle A of EP 0300218 A1; cited from earlier work.
The next data set relates to acarids and fungi. The note with it: cited from earlier work.
In a further data set the test system is Myzus. In words: Aphicidal activity of comparative compounds (topical or dip not stated). It counts as in vivo. Particulars: prior art t-butyl compound; in the tests set out above; concentration not given. The procedure:
as §3
Batches of 10-15 apterous adults were removed from stock cultures and placed on leaf discs (35 mm in diameter) cut from chinese cabbage and held on an agar bed (25 mm deep) in disposable plastic containers (30 mm high). Using a Burkhard micro-applicator aphids were dosed individually with a 0.25 μm droplet of chemical diluted to the required concentration in acetone. control insects were dosed with acetone only. Mortality and other effects were scored at 24 hour intervals up to and including 72 hour post-treatment, the end-point to which the results relate. […]
Tubes containing aphids were dipped into insecticide solutions for 10 seconds, dried on blotting paper, and then inverted and tapped to cause treated aphids to fall to the unimmersed end of each tube. Handling mortality (usually zero or very slight) was scored after 1 hour, when aphids were transferred onto chinese cabbage leaf-discs (35 mm diameter) on an agar bed (25 mm in depth) in disposible plastic containers (30 mm high) and confined by applying a ring of fluon to the exposed lip of the container. […] Mortality was assessed at 24, 48 and 72 hours. […]

The mark [4] stands for this setting: 100 mg 1^-1, 4 days at 20-25° C.
Setting [5] is: resistant strain 794JZ, read-out: Aphid-dip result, % kill M.P. 794JZ.
[6] abbreviates: susceptible strain USIL, read-out: Aphid-dip result, % kill M.P. USIL.
[7] abbreviates: susceptible strain USIL, read-out: Topical aphid results, % kill M.P. USIL.
[8] abbreviates: prior art t-butyl compound, tested by the present inventors.

Usually LC50 stands for the concentration that kills 50% of the test population.

≈ marks a conversion by molar mass, not a printed value.

Take `COC(=O)Nc1nc2ccccc2[nH]1` [Carbendazim, carbendazim]: in the data set with Rhizoctonia solani (1 mg 1^-1), the “Activity at 1 mg 1^-1 (% inhibition of growth in colony diameter)” value is 3.3%. Besides, in the data set with Rhizoctonia solani (5 mg 1^-1), the “Activity at 5 mg 1^-1 (% inhibition of growth in colony diameter)” value was found to be 82.4%.
Consider `C[Si](C)(C)CCC1=C(O)C(=O)c2ccccc2C1=O` [Example 2, 2-hydroxy-3-(2'-trimethylsilylethyl)-1,4-naphthoquinone], for which the “MD (LD50)” value with Musca domestica is reported as 0.69 μg/insect. For the same molecule, the “Activity at 100 mg 1^-1 (% inhibition of growth in colony diameter)” value in the data set with Rhizoctonia solani (setting [4]) was found to be 35%; in the data set on Aspergillus niger (setting [4]), 18%; in [3] it was 67%. Besides, the mortality at 100 ppm with Aphis gossypiae stood at 63%; with Myzus persicae [1] (setting [5]), 54%; in the data set with Myzus persicae [1] (setting [6]), 77%; in the data set with Myzus persicae [2] (setting [7]) it was 45%. Also, in the data set with Phaedon cochleariae Fab, the “PC (LD50)” value is 0.45 μg/insect. The LC50 came out at 38 µg/mL (≈ 138 µM) in the data set with Tetranychus urticae and 2.6 µg/mL (≈ 9.48 µM) in the data set on Bemisia tabaci.
On to `C[Si](C)(C)CCCCCC1=C(O)C(=O)c2ccccc2C1=O` [Example 3, 2-hydroxy-3(5'-trimethylsilylpentyl)-1,4-naphthoquinone], for which the “MD (LD50)” value in the data set on Musca domestica is 1.3 μg/insect. The mortality at 100 ppm with Aphis gossypiae, with Myzus persicae [1] (setting [6]) and in the data set on Myzus persicae [2] (setting [7]) was 100% each time. Further, the LC50 turned out to be 2.8 µg/mL (≈ 8.85 µM) in the data set with Tetranychus urticae and 6.8 µg/mL (≈ 21.5 µM) in the data set with Bemisia tabaci.
In the case of `C[Si](C)(C)CCCCCCCC1=C(O)C(=O)c2ccccc2C1=O` [Example 10], the “MD (LD50)” value in the data set with Musca domestica was 1.7 μg/insect. Besides, the mortality at 100 ppm in the data set on Aphis gossypiae, in the data set on Myzus persicae [1] (setting [6]) and in the data set on Myzus persicae [2] (setting [7]) was 100% throughout. For the same molecule, the LC50 in the data set with Tetranychus urticae was 0.31 µg/mL (≈ 0.9 µM); in the data set on Bemisia tabaci it was 8.2 µg/mL (≈ 23.8 µM).
`C[Si](C)(C)CCCCCCCCC1=C(O)C(=O)c2ccccc2C1=O` [Example 11]: the “MD (LD50)” value in the data set on Musca domestica turned out to be 2.3 μg/insect. Besides, the mortality at 100 ppm in the data set on Aphis gossypiae came to 100%; in the data set with Myzus persicae [1] (setting [6]) it was 100%; in the data set with Myzus persicae [2] (resistant strain 794JZ, read-out: Topical aphid results, % kill M.P. 794JZ), 95%; in the data set with Myzus persicae [2] (setting [7]) it was 100%. Further, the values for the 50% lethal concentration (LC50) in the data set on Tetranychus urticae and in the data set with Bemisia tabaci were 0.51 µg/mL (≈ 1.42 µM) and 14.6 µg/mL (≈ 40.7 µM), respectively.
On to `C[Si](C)(C)CCCCCCCCCC1=C(O)C(=O)c2ccccc2C1=O` [Example 12, 2-hydroxy-3-(9-trimethylsilylnonyl)-1,4-naphthoquinone], for which, in the data set on Musca domestica, the “MD (LD50)” value came out at 2.8 μg/insect. Also, the mortality at 100 ppm amounted to 93% with Aphis gossypiae, 61% in the data set with Myzus persicae [1] (setting [5]), 100% with Myzus persicae [1] (setting [6]) and 89% in the data set on Myzus persicae [2] (setting [7]). For the same molecule, the “PC (LD50)” value with Phaedon cochleariae Fab stood at 0.13 μg/insect. Besides, the values for the LC50 with Tetranychus urticae and in the data set with Bemisia tabaci were 0.9 µg/mL (≈ 2.42 µM) and 8.6 µg/mL (≈ 23.1 µM), respectively.
On to `CCCN(CCOc1c(Cl)cc(Cl)cc1Cl)C(=O)n1ccnc1` [Prochloraz, prochloraz, reference compound], for which, in the data set on Aspergillus niger (1 mg 1^-1), the “Activity at 1 mg 1^-1 (% inhibition of growth in colony diameter)” value came to 97.8%.
In the case of `C[Si](C)(C)C1CCC(C2=C(O)C(=O)c3ccccc3C2=O)CC1` (centres unmarked) [compound of Example 5 (DE 3801743 A1)], the “activity against Tetranychus relative to tertiary butyl compound” value in the data set on Tetranychus is recorded as “less than the corresponding tertiary butyl compound”. Further, the “pesticidal activity relative to other disclosed compounds” value with acarids and fungi (DE 3801743 A1) is given as “not the most pesticidally active compound”. The “acaricidal and fungicidal activity” value in the data set with acarids and fungi (data in DE 3801743 A1) was “some acaricidal and fungicidal activity”.
As for `CC(C)(C)C1CCC(C2=C(O)C(=O)c3ccccc3C2=O)CC1` (centres unmarked) [t-butyl compoud, reference compound], in the data set on Musca domestica (setting [8]), the “LD50 against Musca” value worked out at 16 μg/insect. Moreover, the “LD50 against Phaedon” value in the data set on Phaedon cochleariae Fab (setting [8]) was found to be 0.53 μg/insect. Moreover, the “kill against Myzus” value with Myzus is reported as 19%.

The values are drawn from patent US6162799A, “Pesticidal compounds” (BTG International Limited, priority 1995, dated 2000).
